Results taken from article PMC6429712, “Discovery of a natural small-molecule compound that suppresses tumor EMT, stemness and metastasis by inhibiting TGFβ/BMP signaling in triple-negative breast cancer” (Journal of Experimental & Clinical Cancer Research : CR, 2019).

Legend:
Assay in all cases: in vitro kinase activity assay
Assay type in all cases: biochemical
[1] = target: BMPR1B (Homo sapiens, UniProt O00238)
[2] = target: T1, TGFBR1 (Homo sapiens, UniProt P36897)
T1 sequence (P36897 34-503): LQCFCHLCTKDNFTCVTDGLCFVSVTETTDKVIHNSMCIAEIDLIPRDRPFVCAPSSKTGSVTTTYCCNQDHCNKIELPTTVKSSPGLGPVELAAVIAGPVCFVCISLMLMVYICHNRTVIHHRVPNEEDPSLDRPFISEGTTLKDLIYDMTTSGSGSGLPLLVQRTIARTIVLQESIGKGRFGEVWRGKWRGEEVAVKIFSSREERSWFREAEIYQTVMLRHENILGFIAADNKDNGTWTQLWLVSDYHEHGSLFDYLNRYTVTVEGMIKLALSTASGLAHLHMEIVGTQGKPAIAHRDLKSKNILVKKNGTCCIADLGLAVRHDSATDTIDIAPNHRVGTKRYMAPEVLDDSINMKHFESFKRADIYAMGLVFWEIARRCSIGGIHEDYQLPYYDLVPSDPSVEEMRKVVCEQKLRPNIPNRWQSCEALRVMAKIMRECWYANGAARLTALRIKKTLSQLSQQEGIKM

[3] = target: T2, BMPR2 (Homo sapiens, UniProt Q13873)
T2 sequence (Q13873 27-1038): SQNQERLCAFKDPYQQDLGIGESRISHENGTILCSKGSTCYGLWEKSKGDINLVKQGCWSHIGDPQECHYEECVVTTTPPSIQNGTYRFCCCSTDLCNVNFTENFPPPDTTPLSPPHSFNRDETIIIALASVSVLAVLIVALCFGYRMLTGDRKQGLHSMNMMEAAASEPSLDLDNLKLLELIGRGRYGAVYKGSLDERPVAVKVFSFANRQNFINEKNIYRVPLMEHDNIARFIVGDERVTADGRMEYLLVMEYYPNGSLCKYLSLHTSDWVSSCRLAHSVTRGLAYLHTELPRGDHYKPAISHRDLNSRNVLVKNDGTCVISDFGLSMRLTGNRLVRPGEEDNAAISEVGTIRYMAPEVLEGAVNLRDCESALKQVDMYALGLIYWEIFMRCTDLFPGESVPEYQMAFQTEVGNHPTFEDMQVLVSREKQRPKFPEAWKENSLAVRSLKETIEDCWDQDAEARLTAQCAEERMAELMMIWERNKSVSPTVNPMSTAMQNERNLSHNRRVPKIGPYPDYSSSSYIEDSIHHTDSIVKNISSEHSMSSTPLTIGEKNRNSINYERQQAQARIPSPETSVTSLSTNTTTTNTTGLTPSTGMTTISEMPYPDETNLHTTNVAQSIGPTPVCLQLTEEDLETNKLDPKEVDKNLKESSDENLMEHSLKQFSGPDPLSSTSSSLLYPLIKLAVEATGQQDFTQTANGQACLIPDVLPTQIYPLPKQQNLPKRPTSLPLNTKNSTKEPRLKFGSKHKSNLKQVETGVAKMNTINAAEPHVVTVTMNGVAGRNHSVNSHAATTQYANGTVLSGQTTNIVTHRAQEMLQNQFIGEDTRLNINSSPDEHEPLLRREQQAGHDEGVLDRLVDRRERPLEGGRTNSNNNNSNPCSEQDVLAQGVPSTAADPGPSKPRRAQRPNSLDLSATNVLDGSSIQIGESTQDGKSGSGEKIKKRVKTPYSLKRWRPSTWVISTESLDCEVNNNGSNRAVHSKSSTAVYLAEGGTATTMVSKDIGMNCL

[4] = target: BMPR1A (Homo sapiens, UniProt P36894)
Chain of BMPR1A (P36894 24-532): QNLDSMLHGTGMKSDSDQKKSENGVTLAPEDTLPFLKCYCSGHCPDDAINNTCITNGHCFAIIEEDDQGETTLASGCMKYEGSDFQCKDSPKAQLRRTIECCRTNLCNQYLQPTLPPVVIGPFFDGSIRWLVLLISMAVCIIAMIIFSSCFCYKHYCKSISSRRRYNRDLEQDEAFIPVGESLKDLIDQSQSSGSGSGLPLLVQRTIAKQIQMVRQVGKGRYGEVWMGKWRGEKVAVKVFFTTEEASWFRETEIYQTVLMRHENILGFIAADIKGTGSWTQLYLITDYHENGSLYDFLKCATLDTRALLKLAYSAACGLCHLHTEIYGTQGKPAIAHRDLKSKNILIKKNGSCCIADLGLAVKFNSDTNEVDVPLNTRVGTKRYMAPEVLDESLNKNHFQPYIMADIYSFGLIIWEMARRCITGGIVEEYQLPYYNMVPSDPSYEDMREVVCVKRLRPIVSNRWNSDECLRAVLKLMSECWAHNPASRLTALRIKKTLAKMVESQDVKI

Chain of BMPR1B (O00238 14-502): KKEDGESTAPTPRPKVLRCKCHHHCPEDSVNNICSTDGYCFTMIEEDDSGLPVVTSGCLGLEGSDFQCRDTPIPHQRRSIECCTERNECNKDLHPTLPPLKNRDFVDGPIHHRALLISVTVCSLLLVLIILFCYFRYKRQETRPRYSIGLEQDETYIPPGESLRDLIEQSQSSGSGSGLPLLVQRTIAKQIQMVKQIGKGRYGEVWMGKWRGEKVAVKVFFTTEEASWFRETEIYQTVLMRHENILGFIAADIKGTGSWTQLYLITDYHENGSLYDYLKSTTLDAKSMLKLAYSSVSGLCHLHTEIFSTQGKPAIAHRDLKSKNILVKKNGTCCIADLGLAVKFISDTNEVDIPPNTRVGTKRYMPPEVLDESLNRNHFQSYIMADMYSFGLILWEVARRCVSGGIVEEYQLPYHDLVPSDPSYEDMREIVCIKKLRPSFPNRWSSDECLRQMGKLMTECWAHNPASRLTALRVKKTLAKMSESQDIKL

SMILES: O=C1Nc2ccc(O)cc2/C1=C\c1ccc(O)c(O)c1 [ZL170, (E)-3-(3,4-dihydroxybenzylidene)-5-hydroxyindolin-2-one]
- IC50 [1]: 1100 nM
- IC50 [2]: 1040 nM
- IC50 [3]: 201 nM
- IC50 [4]: 806 nM
